The results in this text go back to patent publication US20250228239A1, “MOLECULES HAVING PESTICIDAL UTILITY, AND INTERMEDIATES, COMPOSITIONS, AND PROCESSES, RELATED THERETO” (priority 2024, published 2025).

As a reminder, the mortality is the percentage killed.

Structures are written as SMILES. Where two headings read alike, the source gives them in different places.

Holding throughout (type): in vivo
Data set [1] concerns Cabbage Looper (Trichoplusia ni, TRIPNI). The data set is described as follows: Bioassays on Cabbage Looper (CL), 128-well diet tray assay. Conditions: Trichoplusia ni; for mortality at 50 µg/cm2: 168 h, second instar larvae, 50 μg/cm^2 of test molecule on artificial diet, 25° C., five to seven days, average of eight wells, read-out: CL % Control (or Mortality) rating. In outline:
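One to five second-instar larvae per well on artificial diet surface-treated with 50 μg/cm^2 test molecule (applied in 90:10 acetone-water, dried). Held 5–7 days at 25° C, 14:10 light-dark; percent mortality recorded per well and averaged over eight wells.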

Data set [2] has as its system Beet Armyworm (Spodoptera exigua, LAPHEG). The data set is described as follows: Bioassays on Beet Armyworm (BAW), 128-well diet tray assay. Conditions: Spodoptera exigua; for mortality at 50 µg/cm2: 168 h, second instar larvae, 50 μg/cm^2 of test molecule on artificial diet, 25° C., five to seven days, average of eight wells, read-out: BAW % Control (or Mortality) rating. In a few lines: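 Percent larval mortality, averaged across eight wells, scored after five to seven days at 25° C. under 14:10 light-dark. Each well held one to five second instars feeding on diet dosed at 50 μg/cm^2 with compound from 90:10 acetone-water, solvent dried off.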

In data set [3] the test system is Yellow Fever Mosquito (Aedes aegypti, AEDSAE). The following applies: for YFM rating: Table ABC / ABC-DP rating; for YFM % Control (or Mortality) rating: about 1 day-old larvae, 4000 ppm master solution diluted with 90:10 water/acetone, 15 μL per well plus 220 μL larval mixture, 3 days. In a few lines:
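Compounds from DMSO master plates (4000 ppm stock) diluted in 90:10 water/acetone, then dispensed into six replicate plates and infested with ~1-day-old Aedes aegypti larvae in liver-powder water. Held covered at room temperature for 3 days; each well scored for larval mortality and graded on a rating scale.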

The mark [4] stands for this setting: Table ABC: Biological Results, species CL, read-out: CL.
Where [5] appears, read: Table ABC: Biological Results, species BAW, read-out: BAW.
[6] abbreviates: Table ABC: Biological Results, species YFM.
Setting [7] is: Cabbage Looper, Table ABC / ABC-DP rating, read-out: CL rating.
Where [8] appears, read: Beet Armyworm, Table ABC / ABC-DP rating, read-out: BAW rating.
Setting [9] is: Cabbage Looper, rating class, read-out: CL.
The mark [10] stands for this setting: Beet Armyworm, rating class, read-out: BAW.
The mark [11] stands for this setting: Yellow Fever Mosquito, rating class.

On to `CC(=O)OCN(C(=O)c1cc(NC(=O)[C@H]2[C@H](c3cc(Cl)cc(Cl)c3)C2(Cl)Cl)ccc1Cl)c1ccc(F)cc1C#N` (relative stereo) [F1084, trans-(2-Chloro-N-(2-cyano-4-fluorophenyl)-5-(2,2-dichloro-3-(3,5-dichlorophenyl)cyclopropane-1-carboxamido)benzamido)methyl acetate], for which the pest or weed control at 50 µg/cm2 in data set [1] (setting [4]) and in data set [2] (setting [5]) was 50 to 100% throughout. In data set [3] (setting [6]), the YFM entry is “A (80–100)”.
For the molecule `O=C(Nc1ccc(F)cc1)c1cc(NC(=O)[C@H]2[C@H](c3cc(Cl)cc(Cl)c3)C2(F)F)ccc1Cl` (relative stereo) [F1057, trans-2-Chloro-5-(3-(3,5-dichlorophenyl)-2,2-difluorocyclopropane-1-carboxamido)-N-(4-fluorophenyl)benzamide], the pest or weed control at 50 µg/cm2 in data set [1] (setting [4]) and in data set [2] (setting [5]) was 50 to 100% throughout. The YFM result in data set [3] (setting [6]) was “A (80–100)”.
With `O=C(Nc1ccc(F)c(NC(=O)C(F)(F)F)c1F)c1cc(NC(=O)[C@H]2[C@H](c3ccc(F)c(C(F)(F)F)c3)C2(Cl)Cl)ccc1Cl` [F1169, 2-chloro-5-((1R,3R)-2,2-dichloro-3-(4-fluoro-3-(trifluoromethyl)phenyl)cyclopropane-1-carboxamido)-N-(2,4-difluoro-3-(2,2,2-trifluoroacetamido)phenyl)benzamide], the pest or weed control at 50 µg/cm2 in data set [1] (setting [4]) and in data set [2] (setting [5]) was 50 to 100% each time. The YFM entry in data set [3] (setting [6]) is on record as “A (80–100)”.
Consider `Nc1c(F)ccc(NC(=O)c2cc(NC(=O)[C@H]3[C@H](c4ccc(Cl)c(Cl)c4)C3(Cl)Cl)ccc2Cl)c1F` [DP2, N-(3-Amino-2,4-difluorophenyl)-2-chloro-5-((1R,3R)-2,2-dichloro-3-(3,4-dichlorophenyl)cyclopropane-1-carboxamido)benzamide], for which the mortality at 50 µg/cm2 in data set [1] and in data set [2] was 50 to 100% each time. For the same molecule, the pest or weed control at 50 µg/cm2 in data set [1] (setting [7]) and in data set [2] (setting [8]) was 50 to 100% in each case. For the same molecule, in data set [3] (Yellow Fever Mosquito), the YFM rating entry is recorded as “A (80–100)”. Moreover, the “YFM % Control (or Mortality) rating” value in data set [3] is on record as “A (80–100)”.
In the case of `O=C(Nc1ccc(F)cc1F)c1cc(NC(=O)[C@H]2[C@@H](c3ccc(F)c(Cl)c3F)C2(Cl)Cl)ccc1Cl` (relative stereo) [F1033, cis-2-Chloro-5-(2,2-dichloro-3-(3-chloro-2,4-difluorophenyl)cyclopropane-1-carboxamido)-N-(2,4-difluorophenyl)benzamide], the pest or weed control at 50 µg/cm2 in data set [1] (setting [4]) and in data set [2] (setting [5]) was 50 to 100% each time. In addition, the YFM entry in data set [3] (setting [6]) is listed as “A (80–100)”.
As for `O=C(Nc1ccc(F)c(NC(=O)[C@H]2CCCO2)c1F)c1cc(NC(=O)[C@H]2[C@H](c3ccc(F)c(C(F)(F)F)c3)C2(Cl)Cl)ccc1Cl` [F1691, (R)—N-(3-(2-Chloro-5-((1R,3R)-2,2-dichloro-3-(4-fluoro-3-(trifluoromethyl)phenyl)cyclopropane-1-carboxamido)benzamido)-2,6-difluorophenyl)tetrahydrofuran-2-carboxamide], the pest or weed control at 50 µg/cm2 in data set [1] (setting [9]) and in data set [2] (setting [10]) was 50 to 100% throughout. The YFM result in data set [3] (setting [11]) is recorded as “B (More than 0 – Less than 80)”.
Take `Nc1c(F)ccc(NC(=O)c2cc(NC(=O)[C@H]3[C@H](c4cc(F)c(F)c(Br)c4)C3(Cl)Cl)ccc2Cl)c1F` (relative stereo) [F1044, trans-N-(3-Amino-2,4-difluorophenyl)-5-(3-(3-bromo-4,5-difluorophenyl)-2,2-dichlorocyclopropane-1-carboxamido)-2-chlorobenzamide]: the pest or weed control at 50 µg/cm2 in data set [1] (setting [4]) and in data set [2] (setting [5]) was 50 to 100% in each case. Moreover, the YFM result in data set [3] (setting [6]) is recorded as “A (80–100)”.
For `Cc1cc(NC(=O)[C@H]2[C@H](c3ccc(F)c(Cl)c3)C2(Cl)Cl)cc(C(=O)NCCCCl)c1F` (relative stereo) [F2032, trans-N-(3-Chloropropyl)-5-(2,2-dichloro-3-(3-chloro-4-fluorophenyl)-cyclopropane-1-carboxamido)-2-fluoro-3-methylbenzamide], the pest or weed control at 50 µg/cm2 in data set [1] (setting [7]) and in data set [2] (setting [8]) was 50 to 100% in each case. Besides, the YFM rating result in data set [3] (Yellow Fever Mosquito) is “A (80–100)”.
Take `C=C(F)c1c(F)ccc(NC(=O)c2cc(NC(=O)[C@H]3[C@H](c4cc(Cl)cc(Cl)c4)C3(Cl)Cl)ccc2Cl)c1F` (relative stereo) [F1321, trans-2-Chloro-5-(2,2-dichloro-3-(3,5-dichlorophenyl)cyclopropane-1-carboxamido)-N-(2,4-difluoro-3-(1-fluorovinyl)phenyl)benzamide]: the pest or weed control at 50 µg/cm2 in data set [1] (setting [4]) and in data set [2] (setting [5]) was 50 to 100% throughout. Further, the YFM entry in data set [3] (setting [6]) is on record as “A (80–100)”.
On to `CCOC(=O)NNC(=O)c1cc(NC(=O)[C@H]2[C@H](c3cc(Cl)cc(Cl)c3)C2(Cl)Cl)ccc1Cl` (relative stereo) [F2542, trans-ethyl 2-(2-chloro-5-(2,2-dichloro-3-(3,5-dichlorophenyl)cyclopropane-1-carboxamido)benzoyl)hydrazine-1-carboxylate], for which the pest or weed control at 50 µg/cm2 in data set [1] (setting [7]) and in data set [2] (setting [8]) was 50 to 100% each time. Besides, the YFM rating entry in data set [3] (Yellow Fever Mosquito) was “B (More than 0 – Less than 80)”.
Consider `Nc1c(F)ccc(NC(=O)c2cc(NC(=O)[C@H]3[C@H](c4ccc(F)c(C(F)(F)F)c4)C3(Cl)Cl)ccc2Cl)c1F` [DP9, N-(3-amino-2,4-difluorophenyl)-2-chloro-5-((1R,3R)-2,2-dichloro-3-(4-fluoro-3-(trifluoromethyl)phenyl)cyclopropane-1-carboxamido)benzamide], for which the mortality at 50 µg/cm2 in data set [1] and in data set [2] was 50 to 100% throughout. The pest or weed control at 50 µg/cm2 in data set [1] (setting [7]) and in data set [2] (setting [8]) was 50 to 100% in each case. Also, the YFM rating result in data set [3] (Yellow Fever Mosquito) is on record as “A (80–100)”. Further, the “YFM % Control (or Mortality) rating” value in data set [3] was “A (80–100)”.
In the case of `O=C(CCC(F)(C(F)(F)F)C(F)(F)F)Nc1c(F)ccc(NC(=O)c2cc(NC(=O)[C@H]3[C@H](c4ccc(F)c(C(F)(F)F)c4)C3(Cl)Cl)ccc2Cl)c1F` [F1829, 2-Chloro-5-((1R,3R)-2,2-dichloro-3-(4-fluoro-3-(trifluoromethyl)phenyl)cyclopropane-1-carboxamido)-N-(2,4-difluoro-3-(4,5,5,5-tetrafluoro-4-(trifluoromethyl)pentanamido)phenyl)benzamide], the pest or weed control at 50 µg/cm2 in data set [1] (setting [7]) and in data set [2] (setting [8]) was 50 to 100% in each case. For the same molecule, the YFM rating entry in data set [3] (Yellow Fever Mosquito) was “A (80–100)”.
On to `CCOC(C)C(=O)Nc1c(F)ccc(NC(=O)c2cc(NC(=O)[C@H]3[C@H](c4ccc(Cl)c(C(F)(F)F)c4)C3(Cl)Cl)ccc2Cl)c1F` (stereo partly drawn) [F1660, 2-Chloro-5-((1R,3R)-2,2-dichloro-3-(4-chloro-3-(trifluoromethyl)phenyl)cyclopropane-1-carboxamido)-N-(3-(2-ethoxypropanamido)-2,4-difluorophenyl)benzamide], for which the pest or weed control at 50 µg/cm2 in data set [1] (setting [9]) and in data set [2] (setting [10]) was 50 to 100% each time. The YFM entry in data set [3] (setting [11]) is “A (80–100)”.
For the molecule `CC(CC(F)(F)F)C(=O)Nc1c(F)ccc(NC(=O)c2cc(NC(=O)[C@H]3[C@H](c4ccc(F)c(Cl)c4)C3(Cl)Cl)ccc2Cl)c1F` (stereo partly drawn) [F1866, 2-Chloro-5-((1R,3R)-2,2-dichloro-3-(3-chloro-4-fluorophenyl)cyclopropane-1-carboxamido)-N-(2,4-difluoro-3-(4,4,4-trifluoro-2-methylbutanamido)phenyl) benzamide], the pest or weed control at 50 µg/cm2 in data set [1] (setting [7]) and in data set [2] (setting [8]) was 50 to 100% in each case. The YFM rating result in data set [3] (Yellow Fever Mosquito) is listed as “A (80–100)”.
As for `O=C(Nc1ccc(F)c(NC(=O)C(F)F)c1F)c1cc(NC(=O)[C@H]2[C@H](c3ccc(F)c(C(F)(F)F)c3)C2(Cl)Cl)c(F)cc1Cl` [F1729, 2-Chloro-5-((1R,3R)-2,2-dichloro-3-(4-fluoro-3-(trifluoromethyl)phenyl)cyclopropane-1-carboxamido)-N-(3-(2,2-difluoroacetamido)-2,4-difluorophenyl)-4-fluorobenzamide], the pest or weed control at 50 µg/cm2 in data set [1] (setting [9]) and in data set [2] (setting [10]) was 50 to 100% throughout. Besides, the YFM result in data set [3] (setting [11]) is given as “A (80–100)”.
For the molecule `O=C(CCC(F)(F)F)Nc1c(F)ccc(NC(=O)c2cc(NC(=O)[C@H]3[C@H](c4ccc(Cl)c(Cl)c4)C3(Cl)Cl)ccc2Cl)c1F` [F1847, 2-Chloro-5-((1R,3R)-2,2-dichloro-3-(3,4-dichlorophenyl)cyclopropane-1-carboxamido)-N-(2,4-difluoro-3-(4,4,4-trifluorobutanamido)phenyl)benzamide], the pest or weed control at 50 µg/cm2 in data set [1] (setting [7]) and in data set [2] (setting [8]) was 50 to 100% throughout. Besides, the YFM rating entry in data set [3] (Yellow Fever Mosquito) is “A (80–100)”.
